Source: US9682059B2 (priority 2013, dated 2017)
Read-outs that look alike come from different tables or passages of the source.

Experiments:
[1] = tested on: PTZ-induced clonic seizure; experiment: animal or person; format: in vivo, mice; details: Mus musculus, ip; for responders at 20.4 mg/kg: read-out: Protection %; for ED50: read-out: PTZ test ED50
[2] = tested on: Lithium-pilocarpine induced status epilepticus; experiment: animal or person; format: in vivo, rat; details: for Protection %: rat, in vivo; for responders at 46 mg/kg: Rattus norvegicus, iv, read-out: Protection %
[3] = tested on: Lithium-pilocarpine induced status epilepticus; experiment: animal or person; format: in vivo; details: Rattus norvegicus, ip, 1.5 h, read-out: Protection %
[4] = tested on: PTZ-induced clonic seizure; experiment: animal or person; format: in vivo, rats; details: Rattus norvegicus, ip
[5] = tested on: neurotoxicity (rotarod); experiment: Neurotoxicity (rotarod); format: in vivo; details: mice, protective index
Description: The measurement of neurotoxicity of the test compounds was conducted by the method of Dunham and Miya [Dunham, N. W. and Miya, T. S. 1957. A note on a simple apparatus for detecting neurological deficit in rats and mice. J. Am. Pharm. Assoc. (Baltimore) 46: 208-209]. In the method, motor abilities of the test animals can be determined by observing whether the test animals can walk without falling from a rotator, thereby determining the value of neurotoxicity of each compound. […] They were pre-trained on the rotarod (Rotarod; Columbus instrument, rota-max, USA) at 6 rpm for 5 min 24 hr prior to the test. The peak time was determined by administration test material's random dose for 0.5, 1, 2, 4 hour. […] The ratio of TD50 to ED50(TD50/ED50) is called as a protective index, and useful as a parameter for comparison of pharmaceutical efficacy and neurotoxicity.

[6] = tested on: lamotrigene-resistant amygdala kindled rat; experiment: animal or person; format: in vivo; details: ip
[7] = tested on: 6 Hz-induced seizure; experiment: animal or person; format: in vivo, mice; details: ip
[8] = tested on: benzodiazepine-resistant status epilepticus; experiment: animal or person; format: in vivo; details: Rattus norvegicus, ip, 10 min
[9] = tested on: maximal electroshock seizure; experiment: animal or person; format: in vivo, mice

Row | SMILES | responders at 20.4 mg/kg [1] | responders at 46 mg/kg [2] | also measured
1 | C[C@H](OC(=O)NC1CC1)[C@@H](O)c1ccccc1Cl (single isomer, unassigned) [Compound 25] | 66.7% |  | Protection % [2]: ^a46 (100%); responders at 60 mg/kg [3]: 100%
2 | CC[C@H](OC(N)=O)[C@@H](O)c1c(Cl)cccc1Cl [Compound 40, 1-(2,6-dichlorophenyl)-(S)-1-hydroxybutyl-(S)-2-carbamate] | 33.3% | 100% | 
3 | CNC(=O)O[C@@H](C)[C@@H](O)c1ccccc1Cl [Compound 15, 1-(2-chlorophenyl)-(S)-1-hydroxypropyl-(S)-2-N-methylcarbamate] |  | 100% | responders at 25 mg/kg ([4]; read-out: Protection %): 33.3%
4 | CCC(OC(N)=O)C(O)c1ccccc1Cl (racemic) [Compound 8, 1-(2-chlorophenyl)-1-hydroxybutyl-2-carbamate] | 50% | 50% | 
5 | CC[C@H](OC(N)=O)[C@@H](O)c1ccccc1Cl [Compound 6, 1-(2-chlorophenyl)-(S)-1-hydroxybutyl-(S)-2-carbamate] |  | 100% | ED50 [1]: 17.9 mg/kg; responders at 30 mg/kg ([4]; read-out: Protection %): 50%
6 | CCCNC(=O)O[C@@H](C)[C@@H](O)c1ccccc1Cl [Compound 23, 1-(2-chlorophenyl)-(R)-1-hydroxypropyl-(R)-2-N-propylcarbamate] | 50% |  | 
7 | CC(OC(N)=O)C(O)c1ccccc1Cl (racemic) [Compound 3, 1-(2-chlorophenyl)-1-hydroxypropyl-2-carbamate] |  |  | PI(TD50/ED50 in MES) [5]: 12.0
8 | CC(C)[C@H](OC(N)=O)[C@@H](O)c1c(Cl)cccc1Cl [Compound 42, 1-(2,6-dichlorophenyl)-(S)-1-hydroxy-3-methyl-butyl-(S)-2-carbamate] | 50% |  | 
9 | CNC(=O)O[C@H](C)[C@H](O)c1ccccc1Cl (racemic) [Compound 29, 1-(2-chlorophenyl)-1-hydroxypropyl-2-N-methylcarbamate] | 33.3% |  | 
10 | CC(C)NC(=O)O[C@H](C)[C@H](O)c1ccccc1Cl (racemic) [Compound 31, 1-(2-chlorophenyl)-1-hydroxypropyl-2-N-isopropylcarbamate] | 83.3% | 100% | 
11 | CCCC[C@H](OC(N)=O)[C@@H](O)c1c(Cl)cccc1Cl [Compound 44, 1-(2,6-dichlorophenyl)-(S)-1-hydroxyhexyl-(S)-2-carbamate] | 33.3% |  | 
12 | C[C@H](OC(N)=O)[C@@H](O)c1cccc(Cl)c1Cl [Compound 38, 1-(2,3-dichlorophenyl)-(S)-1-hydroxypropyl-(S)-2-carbamate] | 50% | 50% | 
13 | CC[C@H](OC(N)=O)[C@@H](O)c1ccccc1I [Compound 67, 1-(2-iodophenyl)-(S)-1-hydroxybutyl-(S)-2-carbamate] |  | 100% | ED50 [1]: 23.1 mg/kg; responders at 30 mg/kg ([4]; read-out: Protection %): 33.3%
14 | CC[C@H](OC(N)=O)[C@@H](O)c1ccc(Cl)cc1Cl [Compound 39, 1-(2,4-dichlorophenyl)-(S)-1-hydroxybutyl-(S)-2-carbamate] |  |  | ED50 [1]: 24.3 mg/kg
15 | CCCNC(=O)O[C@@H](C)[C@@H](O)c1ccccc1Cl [Compound 16, 1-(2-chlorophenyl)-(S)-1-hydroxypropyl-(S)-2-N-propylcarbamate] |  | 100% | responders at 30 mg/kg ([4]; read-out: Protection %): 33.3%
16 | CCCC[C@H](OC(N)=O)[C@@H](O)c1ccc(Cl)cc1Cl [Compound 43, 1-(2,4-dichlorophenyl)-(S)-1-hydroxyhexyl-(S)-2-carbamate] |  |  | responders at 25 mg/kg ([4]; read-out: Protection %): 33.3%
17 | CC(C)[C@H](OC(N)=O)[C@@H](O)c1ccccc1Cl [Compound 9, 1-(2-chlorophenyl)-(8)-1-hydroxy-3-methyl-butyl-(8)-2-carbamate] | 33.3% |  | 

Row | SMILES | responders at 20.4 mg/kg [1] | responders at 46 mg/kg [2] | also measured
18 | C[C@H](OC(N)=O)[C@H](O)c1ccccc1Cl [Compound 5, 1-(2-chlorophenyl)-(R)-1-hydroxypropyl-(S)-2-carbamate] |  |  | PI(TD50/ED50 in MES) [5]: 3.3
19 | C[C@H](OC(N)=O)[C@@H](O)c1ccccc1Cl [Compound 1, 1-(2-chlorophenyl)-(S)-1-hydroxypropyl-(S)-2-carbamate] |  |  | ED50 ([6]; Rattus norvegicus): 17 mg/kg; Seizure Score ([6]; rat, in vivo): 2.0 ± 0.7(Control: 5.0 ± 0.0); PI(TD50/ED50 in MES) [5]: 16.8; ED50 ([7]; Mus musculus): 14.6 mg/kg; ED50 ([7]; mouse, in vivo): 13.66 mg/kg; ED50 [8]: 96.9 mg/kg
20 | C[C@@H](OC(N)=O)[C@H](O)c1ccc(Cl)cc1Cl [Compound 45, 1-(2,4-dichlorophenyl)-(R)-1-hydroxypropyl-(R)-2-carbamate] | 16.7% | 33.3% | responders at 50 mg/kg ([4]; read-out: Protection %): 16.7%
21 | CCCC[C@@H](OC(N)=O)[C@H](O)c1ccccc1Cl [Compound 13, 1-(2-chlorophenyl)-(R)-1-hydroxyhexyl-(R)-2-carbamate] | 50% |  | 
22 | C[C@H](OC(N)=O)[C@@H](O)c1ccccc1F [Compound 63, 1-(2-fluorophenyl)-(S)-1-hydroxypropyl-(S)-2-carbamate] | 50% | 50% | 
23 | C[C@H](OC(N)=O)[C@@H](O)c1c(Cl)cccc1Cl [Compound 37, 1-(2,6-dichlorophenyl)-(S)-1-hydroxypropyl-(S)-2-carbamate] |  | 100% | ED50 [1]: 25.7 mg/kg; responders at 30 mg/kg ([4]; read-out: Protection %): 50%; PI(TD50/ED50 in MES) [5]: 5.1
24 | C[C@@H](OC(N)=O)[C@H](O)c1ccccc1Cl [Compound 2, 1-(2-chlorophenyl)-(R)-1-hydroxypropyl-(R)-2-carbamate] |  | 50% | ED50 ([4]; read-out: PTZ test ED50): 51.9 mg/kg; PI(TD50/ED50 in MES) [5]: 7.3
25 | C[C@@H](OC(N)=O)[C@H](O)c1c(Cl)cccc1Cl [Compound 46, 1-(2,6-dichlorophenyl)-(R)-1-hydroxypropyl-(R)-2-carbamate] | 50% | 50% | 
26 | C[C@H](OC(N)=O)[C@@H](O)c1ccccc1I [Compound 65, 1-(2-iodophenyl)-(S)-1-hydroxypropyl-(S)-2-carbamate] | 100% | 100% | 
27 | CCCCC(OC(N)=O)C(O)c1ccccc1Cl (racemic) [Compound 14, 1-(2-chlorophenyl)-1-hydroxyhexyl-2-carbamate] | 16.7% |  | 
28 | C[C@H](OC(=O)NC1CC1)[C@@H](O)c1ccccc1Cl [Compound 18, 1-(2-chlorophenyl)-(S)-1-hydroxypropyl-(R)-2-N-cyclopropylcarbamate] |  |  | responders at 30 mg/kg ([4]; read-out: Protection %): 16.7%; Protection % [2]: ^a46 (66.7%)
29 | C[C@@H](OC(N)=O)[C@@H](O)c1ccccc1Cl [Compound 4, 1-(2-chlorophenyl)-(S)-1-hydroxypropyl-(R)-2-carbamate] |  | 100% | ED50 [1]: 26.7 mg/kg; responders at 30 mg/kg ([4]; read-out: Protection %): 50%
30 | C[C@@H](OC(=O)NC1CC1)[C@H](O)c1ccccc1Cl (racemic) [Compound 32, 1-(2-chlorophenyl)-1-hydroxypropyl-2-N-cyclopropylcarbamate] | 16.7% | 100% | responders at 200 mg/kg ([9]; Mus musculus, po, read-out: Protection %): 100%
31 | CCCC[C@H](OC(N)=O)[C@@H](O)c1ccccc1Cl [Compound 12, 1-(2-chlorophenyl)-(S)-1-hydroxyhexyl-(S)-2-carbamate] | 33.3% |  | 
32 | CCCNC(=O)O[C@H](C)[C@H](O)c1ccccc1Cl (racemic) [Compound 30, 1-(2-chlorophenyl)-1-hydroxypropyl-2-N-propylcarbamate] | 33.3% |  | Protection % ([9]; mouse, in vivo): 200 ^a(25%)
33 | C[C@H](OC(N)=O)[C@@H](O)c1ccc(Cl)cc1Cl [Compound 36, 1-(2,4-dichlorophenyl)-(S)-1-hydroxypropyl-(S)-2-carbamate] | 33.3% |  | 
